Marks after values point to notes of the source that are not given here. Starred links: 1 amine or outer side, 2 acyl side, 3 side chain; linkers in the order of their positions; H or OH if unused. Non-standard residues stand in square brackets, D forms with d. Residues, ends and D or L forms follow the SMILES beside them. Groups on a side chain read outwards from the residue. *: point of attachment. C20 diacid = O=C(O)CCCCCCCCCCCCCCCCCCC(=O)*; γGlu = O=C(O)[C@H](CCC(=O)[*:2])N[*:1]; NMeI = CC[C@H](C)[C@H](NC)C(=O)O; Nle = CCCC[C@H](N)C(=O)O; AEEA = NCCOCCOCC(=O)O; Aib = CC(C)(N)C(=O)O
What was measured:
[1] = system: pCRHR2; assay: cAMP potency, transiently transfected CHO-K1 cells, pCRHR2; format: cell-based, pig; details: transiently transfected CHO-K1, average n=3; read-out: Transient cell system EC50 (nM) pCR HR2
Procedure: (§1) Selected peptides were tested for potency on different species (mouse, rat, porcine) using transiently transfected CHO-K1 cells using the general procedure.

[2] = molecular target: T1, mCRHR2 (Mus musculus, UniProt Q60748); assay: cAMP potency, transiently transfected CHO-K1 cells, mCRHR2; format: cell-based; details: transiently transfected CHO-K1, average n=3; read-out: Transient cell system EC50 (nM) mCRH R2
T1 construct: DYK (FLAG); host or cells: CHO-K1, transiently transfected
T1 sequence (Q60748 1-431 isoform Q60748-2): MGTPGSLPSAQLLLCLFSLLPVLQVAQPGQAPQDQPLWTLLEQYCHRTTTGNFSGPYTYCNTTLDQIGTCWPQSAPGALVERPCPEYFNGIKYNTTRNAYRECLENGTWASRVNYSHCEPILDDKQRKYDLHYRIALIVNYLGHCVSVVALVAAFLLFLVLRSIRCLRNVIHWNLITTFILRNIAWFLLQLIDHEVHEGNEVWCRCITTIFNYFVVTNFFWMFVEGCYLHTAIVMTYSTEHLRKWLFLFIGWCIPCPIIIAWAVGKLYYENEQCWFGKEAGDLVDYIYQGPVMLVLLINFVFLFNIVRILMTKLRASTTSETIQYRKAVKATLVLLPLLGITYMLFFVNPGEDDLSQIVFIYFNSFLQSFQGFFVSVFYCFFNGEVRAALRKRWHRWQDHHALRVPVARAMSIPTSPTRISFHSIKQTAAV
Procedure: as §1

[3] = PK in minipigs; details: male, Göttingen, minipig, in vivo
Procedure: Pharmacokinetics studies were determined in male Göttingen minipigs from Ellegaard Göttingen Minipigs A/S. Animals were acclimatised for at least 7 days before placed on study. The minipigs had prior to study been surgically implanted with central venous catheters inserted which were used for blood sampling. Animals were housed under a 12/12 h dark-light cycle with ad libitum access to domestic water and animals were fed a commercially standard maintenance diet twice daily.
Test compounds where administrated either as a cassette or as a single compound. Test compounds were administrated by a single intravenous injection or short infusion (5-10 min) through the implanted catheter or a single subcutaneously injection. The subcutaneously injection was given in the mid neck between ear and scapula with a stopper on the needle, allowing 0.5 cm of the needle to be inserted.Plasma concentration-time profiles employing 12-16 sampling points were obtained from each animal. As an example, blood samples were collected on the following times: 0 (predose), 0.17, 0.33, 0.5, 1, 2, 5, 6, 24, 48, 72, 92, 168, 240 and 336 hrs post administration. Approximately 2 mL blood was drawn from the central catheter from each animal at each sampling point. Blood samples were taken in K2 or K3 EDTA tubes. Blood was kept on ice for maximum 30 min before centrifugation (10 min, 4°C, 2000 x g). Approximately 200 µL plasma samples was transferred to a Micronic tube and stored at -20° or lower.
Pharmacokinetics parameters were calculated by non-compartmental analysis (NCA) of the individual plasma concentrations-time profile from the animals. The log-linear trapezoidal method was used for estimation of AUC and AUMC. The terminal T½ was determined as In(2)/λz where λz is the first order rate constant as determined by the terminal log-linear part of the curve.
Plasma concentrations were measured by LC-MSMS using electrospray ionization and multiple reaction monitoring. Calibration standards and quality control (QC) samples were prepared in specie match matrix. 15 µL calibration standards, QC and study samples were extracted by protein precipitation using 60 µL methanol followed by addition of 45 µL milliQ water. Samples were shaken (800 rpm) at room temperature for 5 min before centrifugation (2570×g, 40 min, 4°C) and the supernatant was transferred to a LoBind PCR plate. Samples were analysed on a Thermo Triscend UHPLC system coupled to a Sciex API 6500+ mass spectrometer. Samples were subject to online SPE clean-up on a HLB column (1×50 mm, Waters) before loaded onto a Aeris Peptide XB C18 column (3.6 µm, 100 Å, 2×50 mm, Phenomenex) analytical column. The mobile phases consisted of acetonitrile and milliQ H2O both containing 0.1% V/V formic acid. The flow rate was 0.60 mL/min and the column was kept at room temperature.

[4] = Body mass and body fat content in mouse model of diet-induced obesity (DIO); format: in vivo; details: DIO mice; for relative body weight: 28 days, compared to vehicle; for Blood HbA1c / M. Gastrocnemius / M. Soleus / Body weight at termination / Fat mass change from baseline / Lean mass change from baseline / Relative body weight change at termination: Table 17 study; for Body weight at termination / Fat mass change from baseline / Lean mass change from baseline / Relative body weight change at termination: ± SEM
Procedure: SEQ ID NO: 3, SEQ ID NO: 6, SEQ ID NO: 238, SEQ ID NO: 16 and SEQ ID NO: 215 were assessed for their ability to reduce body mass and body fat content in a mouse model of diet-induced obesity (DIO).
Male C57BL/6JRj mice were obtained from JanVier (JanVier Labs, France) at 5 weeks of age. The animals were group-housed during obesity induction and then single housed 2 weeks prior to study start. They were housed under a 12/12 h dark-light cycle, light off at 3 PM. Room temperature was controlled to 22°C ± 1°C, with 60 % ± 20% humidity. For 22-23 weeks prior to treatment start and throughout the study, the animals had ad libitum access to high-fat diet (60% kcal fat, D12492, Research Diets) and tap water.
The animals were randomized according to lean mass (EchoMRI) and body weight. Animals were dosed subcutaneously […] for 30-32 days. In study 1, the animals were dosed with vehicle or SEQ ID NO: 3 (10, 30, 60 or 100 nmol/kg). In study 2, the animals were dosed with vehicle or SEQ ID NO: 6 (10 or 30 nmol/kg), SEQ ID NO: 238 (10 or 30 nmol/kg), SEQ ID NO: 16 (10 or 30 nmol/kg), SEQ ID NO: 215 (10 or 30 nmol/kg) or SEQ ID NO: 3 (30 nmol/kg).
Body weight and food intake were recorded daily until day 28 and body composition evaluated on day 26 using EchoMRI. At termination, blood for HbA1c analyses were collected and M. gastrocnemius and M. soleus were weighed.
Statistical significance was evaluated using One-way analysis of variance with Dunnett's multiple comparison test. P < 0.05 was considered statistically significant.

[5] = Acute effects on hemodynamics in anesthetized pigs; format: in vivo, Göttingen minipigs; details: anesthetized minipigs, ascending doses
Procedure: Göttingen minipigs were anesthetized and instrumented to continuous monitor hemodynamics during baseline measurement (0.5h), vehicle treatment (0.5h) and ascending doses of SEQ ID NO: 215 each 0.5 hours (10, 30, 100 and 300 µg/kg/min) and compared to a similar setup using Dobutamine (1, 3, 10 and 20 µg/kg/min) and vehicle (NaCl).

Structure (SMILES): CCCC[C@H](NC(=O)[C@@H](NC(=O)[C@H](CCC(=O)O)NC(=O)C(C)(C)NC(=O)[C@H](CC(N)=O)NC(=O)[C@@H](NC(=O)[C@H](CCCCNC(=O)COCCOCCNC(=O)COCCOCCNC(=O)CC[C@H](NC(=O)CC[C@H](NC(=O)CCCCCCCCCCCCCCCCCCC(=O)O)C(=O)O)C(=O)O)NC(=O)[C@H](C)NC(=O)[C@H](CCC(N)=O)NC(=O)[C@H](CCC(=O)O)NC(=O)[C@H](CCCNC(=N)N)NC(=O)[C@H](C)NC(=O)[C@H](C)NC(=O)[C@H](CCCNC(=N)N)NC(=O)[C@H](C)NC(=O)[C@H](CCCNC(=N)N)NC(=O)[C@H](C)NC(=O)[C@H](CCC(N)=O)NC(=O)[C@H](CO)NC(=O)[C@H](CC(C)C)NC(=O)[C@H](CC(C)C)NC(=O)[C@@H](NC(=O)[C@H](CCC(N)=O)NC(=O)[C@H](CC(C)C)NC(=O)[C@H](CC(C)C)NC(=O)CNC(=O)[C@@H](NC(=O)[C@@H]1CCCN1C(=O)[C@@H](NC(=O)[C@H](CC(=O)O)NC(=O)[C@H](CC(C)C)NC(=O)[C@H](CO)NC(=O)[C@H](CC(C)C)NC(=O)[C@@H](NC(=O)[C@@H](NC)[C@@H](C)CC)C(C)C)C(C)C)[C@@H](C)CC)[C@@H](C)CC)[C@@H](C)O)[C@@H](C)CC)C(=O)N[C@@H](C)C(=O)N[C@@H](CCC(=O)O)C(=O)N[C@H](C(N)=O)C(C)C [SEQ ID NO: 215] (H-[NMeI]VLSLDVPIGLLQILLSQARARAAREQAK([AEEA-AEEA-γGlu-γGlu-C20 diacid])TN[Aib]EI[Nle]AEV-NH2)
- EC50 [1]: 0.017 nM
- EC50 [2]: 0.004 nM
- clearance ([3]; iv, Pig, 4.2 nmol/kg i.v.): 7.2 mL/day/kg
- half-life ([3]; iv, Pig, 4.2 nmol/kg i.v., read-out: T½ (converted)): 156 h
- bioavailability ([3]; sc): 68%
- Cmax ([3]; sc, Pig, 6.0 nmol/kg s.c): 38 nM
- Tmax ([3]; sc, Pig, 6.0 nmol/kg s.c): 24 h
- body weight loss compared to SEQ ID NO: 16 ([4]; 10 nmol/kg, Fig. 5): relative higher body weight loss
- relative body weight [4]: prolonged dose-dependent reduction
- relative body weight ([4]; listed as 215): reduce body weight
- Blood HbA1c ([4]; 10 nmol/kg): 4.3 ± 0.1 %
- M. Gastrocnemius ([4]; 10 nmol/kg): 0.19 ± 0.002* ** g
- M. Soleus ([4]; 10 nmol/kg): 0.012 ± 0.0005 g
- Body weight at termination ([4]; 10 nmol/kg): 40.5 ± 1.2 g
- Fat mass change from baseline ([4]; 10 nmol/kg): -8.7 ± 0.5 g
- Lean mass change from baseline ([4]; 10 nmol/kg): 0.1 ± 0.5 g
- Relative body weight change at termination ([4]; 10 nmol/kg): 85.5 ± 1.3 %
- Blood HbA1c ([4]; 30 nmol/kg): 4.4 ± 0.03 %
- M. Gastrocnemius ([4]; 30 nmol/kg): 0.18 ± 0.003 g
- M. Soleus ([4]; 30 nmol/kg): 0.012 ± 0.0005 g
- Body weight at termination ([4]; 30 nmol/kg): 38.9 ± 1.1 g
- Fat mass change from baseline ([4]; 30 nmol/kg): -9.9 ± 0.7 g
- Lean mass change from baseline ([4]; 30 nmol/kg): -0.5 ± 0.3 g
- Relative body weight change at termination ([4]; 30 nmol/kg): 81.8 ± 1.9 %
- inotropic effects (contractility) ([5]; Fig. 11A): positive inotropic effects
- coronary blood flow ([5]; Fig. 11B): increasing
- O2 consumption (rate pressure product) ([5]; Figs. 11C and 11D): increasing
